Experimental data reported in US6492342B1, “Hygromycin A prodrugs” (Pfizer Inc., priority 1999, dated 2002).

Test system: panel of bacterial strains
Assay: Microtiter tray MIC assay against a panel of bacterial strains (NCCLS)
Type: cell-based
Conditions: microtiter trays, compounds dissolved in DMSO
Description: The assay, described below, employs conventional methodology and interpretation criteria and is designed to provide direction for chemical modifications that may lead to compounds with antibacterial activity against susceptible and drug-resistant organisms including, but not limited to, beta-lactam, macrolide and vancomycin resistance. In the assay, a panel of bacterial strains is assembled to include a variety of target pathogenic species, including representatives of antibiotic resistant bacteria. Use of this panel enables the chemical structure/activity relationship to be determined with respect to potency and spectrum of activity. The assay is performed in microtiter trays and interpreted according to Performance Standards for Antimicrobial Disk SusceDtibility Tests—Sixth Edition; Approved Standard, published by The National Committee for Clinical Laboratory Standards (NCCLS) guidelines; the minimum inhibitory concentration (MIC) is used to compare strains. Compounds are initially dissolved in dimethylsulfoxide (DMSO) as stock solutions.

## CC(=Cc1ccc(OC2OC(/C(C)=N/OCc3cccc(Cl)c3)C(O)C2O)c(OC(=O)C(C)(C)C)c1)C(=O)NC1C(O)C(O)C2OCOC2C1O (stereo not shown) [Example 1]
  antibacterial activity in the microtiter assay (MIC): exhibits antibacterial activity
